# Data reported in patent publication US8044089B2, “3-3-di-substituted-oxindoles as inhibitors of translation initiation” (President and Fellows of Harvard College, priority 2004, dated 2011).
# Tested on: eIF2α
# Experiment: eIF2α phosphorylation measured by Western blot
# Type: cell-based
# Conditions: Western blot; unit or reference not given
# Text: (§1) As a non-limiting example, compounds 1272 and 1273 (set forth in Table 1) were synthesized starting from 3-bromoaniline, which upon condensation with hydroxylamine and chloral hydrate followed by concentrated sulfuric acid yielded an inseparable regioisomeric mixture of 4- and 6-bromo isatins. The addition of the two phenyl groups to the three position of the oxindole allowed easy chromatographic separation of the 4- and 6-bromo-3,3-diphenyloxindoles 1272 and 1273. Table 1 sets forth biological data for diaryloxindole compounds including, but not limited to 1272 and 1273. For Tables 1-14, Ca^2+ refers to Ca^2+ release from intracellular stores where a “+” denotes release and a “+/−” denotes inconclusive; eIF2α-P refers to phosphorylation of eIF2α measured by Western blot; SRB refers to the inhibitory concentration to reduce cell growth by 50% (IC50) for growth inhibition of A549 lung cancer cells; and n.d. is not determined.
# (§2) Without intending to be bound by theory, the mechanism of action of translation initiation inhibitors is set forth in FIG. 1, and includes the depletion (complete or partial depletion) of intracellular calcium (Ca^2+) stores and phosphorylation of eIF2α. Compounds synthesized using the approaches described herein were screened for their ability to partially deplete intracellular Ca^2+ stores using FURA-2AM loaded cells (Benzaquen et al. (1995) Nature Medicine, 1:534, incorporated herein by reference in its entirety for all purposes). A limited subset of compounds were further screened for their ability to deplete endoplasmic reticulum (ER) Ca^2+. The Ca^2+ content of the ER was monitored using ER-targeted, Ca^2+ sensitive, recombinant proteins. These recombinant proteins emitted light by fluorescent resonance energy transfer (FRET) as a function of the Ca^2+ content of the medium. Such assays are previously described (Miyawaki, A.; Mizuno, H.; Llopis, J.; Tsien, R. Y.; Jalink, K. Cameleons as cytosolic and intra-organellar calcium probes, Oxford University Press: Oxford, London, 2001; pp 3-16, incorporated herein by reference in its entirety for all purposes). Compounds that depleted Ca^2+ were further evaluated for their ability to phosphorylate eIF2α. eIF2α phosphorylation was measured by Western blot analysis using the phospho-specific anti-eIF2α antibody, as previously described (Aktas et al. (1998) Proc. Natl. Acad. Sci. USA, 95:8280, incorporated herein by reference in its entirety for all purposes).
row,Compound,eIF2α-P (phosphorylation of eIF2α measured by Western blot)
1,CC(C)(C)c1ccc(O)c(C2(C3CCCCC3)C(=O)Nc3ccccc32)c1 (centres unmarked) [Compound 1277],1.08
2,CCCCCCCCc1ccc(O)c(C2(c3ccccc3)C(=O)Nc3ccccc32)c1 (centres unmarked) [Compound 1284],2.91
3,COc1ccc(C2(c3ccccc3)C(=O)Nc3ccccc32)cc1 (centres unmarked) [Compound 1294],1.52
4,CC(C)(C)OC(=O)NCCOc1ccc(C(C)(C)C)cc1C1(c2ccccc2)C(=O)Nc2ccccc21 (centres unmarked) [Compound 1329],0.89
5,O=C(O)c1cccc2c1NC(=O)C2(c1ccccc1)c1ccccc1 [Compound 1353],1.54
6,Cc1cc(C2(c3ccccc3)C(=O)Nc3ccccc32)c(NC(=O)OCC2c3ccccc3-c3ccccc32)cc1O (centres unmarked) [Compound 1395],1.84
7,CC(C)(C)c1ccc(OC(=O)CCCC(=O)O)c(C2(c3ccccc3)C(=O)Nc3ccccc32)c1 (centres unmarked) [Compound 1396],1.72
8,Cc1cc(C2(c3ccccc3)C(=O)Nc3ccccc32)c(NC(=O)c2ccc(C(C)(C)C)cc2)cc1O (centres unmarked) [Compound 1493],2.06
9,CC(=O)Nc1ccc(S(=O)(=O)Nc2cc(O)c(C)cc2C2(c3ccccc3)C(=O)Nc3ccccc32)cc1 (centres unmarked) [Compound 1512],1.01
10,Cc1cc(C2(c3ccccc3)C(=O)Nc3ccccc32)c(NS(=O)(=O)c2ccc(-c3ccccc3)cc2)cc1O (centres unmarked) [Compound 1593],2.22
11,Cc1cc(C2(c3ccccc3)C(=O)Nc3ccccc32)c(NS(=O)(=O)c2ccc(Oc3ccccc3)cc2)cc1O (centres unmarked) [Compound 1594],3.73

# Tested on: A549 lung cancer cells
# Experiment: SRB growth inhibition of A549 lung cancer cells
# Type: cell-based, human
# Conditions: A549 lung cancer cells; unit inferred; read-out: SRB (IC50 for growth inhibition of A549 lung cancer cells)
# Text: As a non-limiting example, compounds 1272 and 1273 (set forth in Table 1) were synthesized starting from 3-bromoaniline, which upon condensation with hydroxylamine and chloral hydrate followed by concentrated sulfuric acid yielded an inseparable regioisomeric mixture of 4- and 6-bromo isatins. The addition of the two phenyl groups to the three position of the oxindole allowed easy chromatographic separation of the 4- and 6-bromo-3,3-diphenyloxindoles 1272 and 1273. Table 1 sets forth biological data for diaryloxindole compounds including, but not limited to 1272 and 1273. For Tables 1-14, Ca^2+ refers to Ca^2+ release from intracellular stores where a “+” denotes release and a “+/−” denotes inconclusive; eIF2α-P refers to phosphorylation of eIF2α measured by Western blot; SRB refers to the inhibitory concentration to reduce cell growth by 50% (IC50) for growth inhibition of A549 lung cancer cells; and n.d. is not determined. […]
row,Compound,IC50 [nM]
1,CC(C)(C)c1ccc(O)c(C2(C3CCCCC3)C(=O)Nc3ccccc32)c1 (centres unmarked) [Compound 1277],10000
2,CCCCCCCCc1ccc(O)c(C2(c3ccccc3)C(=O)Nc3ccccc32)c1 (centres unmarked) [Compound 1284],3000
3,COc1ccc(C2(c3ccccc3)C(=O)Nc3ccccc32)cc1 (centres unmarked) [Compound 1294],10000
4,CC(C)(C)OC(=O)NCCOc1ccc(C(C)(C)C)cc1C1(c2ccccc2)C(=O)Nc2ccccc21 (centres unmarked) [Compound 1329],3000
5,CC(C)(C)c1ccc(O)c(C2(c3ccccc3)C(=O)Nc3ccc(N=[N+]=[N-])cc32)c1 (centres unmarked) [Compound 1348],3000
6,O=C(O)c1cccc2c1NC(=O)C2(c1ccccc1)c1ccccc1 [Compound 1353],> 20000
7,Cc1cc(C2(c3ccccc3)C(=O)Nc3ccccc32)c(NC(=O)OCC2c3ccccc3-c3ccccc32)cc1O (centres unmarked) [Compound 1395],3000
8,CC(C)(C)c1ccc(OC(=O)CCCC(=O)O)c(C2(c3ccccc3)C(=O)Nc3ccccc32)c1 (centres unmarked) [Compound 1396],7000
9,CC(C)(C)c1ccc(O)c(C2(c3ccccc3)C(=O)Nc3cccc(Cl)c32)c1 (centres unmarked) [Compound 1428],3000
10,CC(C)(C)c1ccc(O)c(C2(c3ccccc3)C(=O)Nc3cc(Cl)ccc32)c1 (centres unmarked) [Compound 1429],3000
11,Cc1cc(C2(c3ccccc3)C(=O)Nc3ccccc32)c(NC(=O)c2ccc(C(C)(C)C)cc2)cc1O (centres unmarked) [Compound 1493],3000
12,Cc1cc(C2(c3ccccc3)C(=O)Nc3ccccc32)c(NS(=O)(=O)c2ccc(Oc3ccccc3)cc2)cc1O (centres unmarked) [Compound 1594],5000
13,CC(C)(C)c1ccc(S(=O)(=O)Nc2ccc(C3(c4ccccc4)C(=O)Nc4ccccc43)c(O)c2)cc1 (centres unmarked) [Compound 1624],< 1000

# More lines, now with the values ahead:
row,IC50 [nM],Compound
1,3000,CC(C)(C)c1ccc(O)c(C2(c3c(F)c(F)c(F)c(F)c3F)C(=O)Nc3ccccc32)c1 (centres unmarked) [Compound 1328]
2,14000,Cc1cc(C2(c3ccccc3)C(=O)Nc3ccccc32)c(NS(C)(=O)=O)cc1O (centres unmarked) [Compound 1427]
3,4000,CC(=O)Nc1ccc(S(=O)(=O)Nc2cc(O)c(C)cc2C2(c3ccccc3)C(=O)Nc3ccccc32)cc1 (centres unmarked) [Compound 1512]
4,4000,Cc1cc(C2(c3ccccc3)C(=O)Nc3ccccc32)c(NS(=O)(=O)c2ccc(-c3ccccc3)cc2)cc1O (centres unmarked) [Compound 1593]
5,< 1000,CC(C)(C)c1ccc(S(=O)(=O)Nc2cc(O)ccc2C2(c3ccccc3)C(=O)Nc3ccccc32)cc1 (centres unmarked) [Compound 1623]
6,3000,CC(C)(C)c1ccc(S(=O)(=O)Nc2ccc(O)c(C3(c4ccccc4)C(=O)Nc4ccccc43)c2)cc1 (centres unmarked) [Compound 1638]

# Tested on: intracellular Ca^2+ stores
# Experiment: Ca2+ release from intracellular stores (FURA-2AM loaded cells)
# Type: cell-based
# Set-up: key to Ca^2+ (Ca^2+ release from intracellular stores): a “+” denotes release; a “+/−” denotes inconclusive
# Conditions: not given
# Text: as §1, §2
row,Compound,Ca^2+ (Ca^2+ release from intracellular stores)
1,CC(C)(C)c1ccc(O)c(C2(c3c(F)c(F)c(F)c(F)c3F)C(=O)Nc3ccccc32)c1 (centres unmarked) [Compound 1328],+
2,CC(C)(C)c1ccc(O)c(C2(c3ccccc3)C(=O)Nc3ccc(N=[N+]=[N-])cc32)c1 (centres unmarked) [Compound 1348],+
3,Cc1cc(C2(c3ccccc3)C(=O)Nc3ccccc32)c(NS(C)(=O)=O)cc1O (centres unmarked) [Compound 1427],+
4,CC(C)(C)c1ccc(O)c(C2(c3ccccc3)C(=O)Nc3cccc(Cl)c32)c1 (centres unmarked) [Compound 1428],+
5,CC(C)(C)c1ccc(O)c(C2(c3ccccc3)C(=O)Nc3cc(Cl)ccc32)c1 (centres unmarked) [Compound 1429],+
6,CC(C)(C)c1ccc(S(=O)(=O)Nc2cc(O)ccc2C2(c3ccccc3)C(=O)Nc3ccccc32)cc1 (centres unmarked) [Compound 1623],+
7,CC(C)(C)c1ccc(S(=O)(=O)Nc2ccc(C3(c4ccccc4)C(=O)Nc4ccccc43)c(O)c2)cc1 (centres unmarked) [Compound 1624],+
8,CC(C)(C)c1ccc(S(=O)(=O)Nc2ccc(O)c(C3(c4ccccc4)C(=O)Nc4ccccc43)c2)cc1 (centres unmarked) [Compound 1638],+
